Laboratory results: patent US5468773A, “Methods for inhibiting bone loss and cartilage degradation using wortmannin and its analogs” (Eli Lilly and Company, priority 1994, dated 1995)
Read-outs that look alike come from different tables or passages of the source. Ends that are not written are not given here.

Key:
[1] = test system: hen osteoclasts; test: inhibition of in vitro bone resorption activity of hen osteoclasts; type: cell-based; conditions: for percent of control bone resorption: mean ± SE, n=3-6
Protocol: (§1) Control resorption in Table 2b corresponded to 12-62 Howship's lacunae per bone slice (n=4-4. mean ±SE).
As summarized in Table 3, the various analogs inhibited the resorption of hen osteoclasts with IIIA IC50=10 nM; IIIb, IC50=100 nM; and Ib, IC50=500 nM. Data presented are percent of control bone resorption (n=3-6, mean ±SE). Control levels of resorption varied from 26-49 mg bone resorbed between days 4-6 in culture.

[2] = test system: osteoclastic bone resorption; test: serum calcium in a rat model of secondary hyperparathyroidism (calcium deficient diet), 6 hr infusion; type: in vivo, Sprague Dawley rats; conditions: T=0 control 12 mg/dl, P<0.05
Source text: Compounds were also examined in a rat model of secondary hyperparathyroidism according to similars method as set out in Thomas et al., Bone and Mineral, 4, pp. 73-82 (1988) in an effort to examine the ability of these compounds to inhibit osteoclastic bone resorption in vivo. Serum calcium levels (mg/dl) were previously shown to be dependant on bone resorption in Sprague Dawley rats (400 g males) maintained on a calcium deficient diet for 2 weeks. Serum calcium levels were examined colorimetrically (Sigma, St. Louis) before (T=O) and after 6 hr infusion (T=6) of compounds at a rate of 0.08 ml/hr through cannula inserted into the jugular vein of anesthesized rates. At T=0, the serum calcium of a control rat was 12 mg/dl.

[3] = test system: ovariectomized rats; test: bone mineral density and content of left proximal tibiae in ovariectomized rats (pQCT); type: in vivo, rat; conditions: 5 weeks, mean ± SD, n=6; for Bone Content: Sham 14 ± 1.5, OVX 10.4 ± 1.2; for Total Bone Mineral Density: Sham 590 ± 26, OVX 494 ± 29
Source text: As summarized in Table 4, IIIa was also examined in 6 month old, ovariectomized rats. The bone mineral density (mg/cm^3) and bone mineral content (mg) of the left proximal tibiae were quantitated by computer tomography with a Norland 960 pQCT after daily dosing per os for 5 weeks, similar to the methods of Griffin et al., "Dual-energy X-ray Absorptiometry of the Rat: Accuracy, Precision and Measurement of Bone Loss", J. Bone Miner. Res 8, pp. 795-800 (1993). There were five groups of rats with n=6 per group: Sham, OVX, 0.001, 0.01, and 0.1 mg of IIIa/kg per os daily. In vivo data are presented for a 2 mm slice of the left proximal tibia at 5 weeks post-ovariectomy (mean ±standard deviation).

[4] = test system: rat osteoclasts; test: inhibition of in vitro bone resorption activity of rat osteoclasts (Howship's lacunae per bone slice); type: cell-based; conditions: Osteoclast, Table 2b, mean ± SE, read-out: % Control Bone Resorption
Source text: as §1

[5] = test system: post-menopausal loss of bone; conditions: chronic treatment, clinical data; background; cited from earlier work
[6] = test system: mammalian osteoclasts; conditions: background; cited from earlier work
[7] = Table 3, concentration 1 × 10^-6
[8] = Table 3, concentration 1 × 10^-7
[9] = Table 3, concentration 1 × 10^-8
[10] = Table 3, concentration 1 × 10^-9
[11] = 1 mg/kg/day infused via jugular vein
[12] = Osteoclast, read-out: % Control Bone Resorption

In the case of `COC[C@H]1OC(=O)c2coc3c2[C@@]1(C)C1=C(C3=O)[C@@H]2CC[C@H](O)[C@@]2(C)C[C@H]1OC(C)=O` [IIIa, 17α-Dihydrowortmannin], the “percent of control bone resorption” value [1, 7] is reported as 8 ± 1%, the “percent of control bone resorption” value [1, 8] is reported as 29 ± 4% and the “percent of control bone resorption” value [1, 9] is reported as 67 ± 5%. For the same compound, the “percent of control bone resorption” value [1, 10] was 94 ± 5%, the “serum calcium after 6 hr of infusion” value [2, 11] was ~5 mg/dL and the “Bone Content” value ([3]; 0.001 mg/kg/day per os) was 13.6 ± .6 mg. The “Total Bone Mineral Density” value ([3]; 0.001 mg/kg/day per os) was 528 ± 33 mg/cm3, the “Bone Content” value ([3]; 0.01 mg/kg/day per os) was 13.5 ± 1 mg and the “Total Bone Mineral Density” value ([3]; 0.01 mg/kg/day per os) was 545 ± 26 mg/cm3. The “Bone Content” value ([3]; 0.1 mg/kg/day per os) was 11.5 ± .7 mg and the “Total Bone Mineral Density” value ([3]; 0.1 mg/kg/day per os) was 494 ± 18 mg/cm3.
In the case of `COC[C@H]1OC(=O)c2coc3c2[C@@]1(C)C1=C(C3=O)[C@@H]2CC[C@H](O)[C@@]2(C)CC1` [IIIb, 11-Desacetoxy-17α-dihydrowortmannin], the IC50 ([1]; Osteoclast, read-out: IC50, resorption of hen osteoclasts) is reported as 100 nM, the “percent of control bone resorption” value [1, 7] is reported as 26 ± 3% and the “percent of control bone resorption” value [1, 8] is reported as 50 ± 4%. The “percent of control bone resorption” value [1, 9] was 88 ± 19% and the “percent of control bone resorption” value [1, 10] was 124 ± 23%.
With `Cc1c2c(c(O)c3occ(C(=O)O)c13)[C@@H]1CCC(=O)[C@@]1(C)C=C2` [IVa] the “percent of control bone resorption” value [1, 7] was 105 ± 10%, the “percent of control bone resorption” value [1, 8] was 110 ± 13% and the “percent of control bone resorption” value [1, 9] was 99 ± 15%. The “percent of control bone resorption” value [1, 10] was 93 ± 14%.
In the case of `COC[C@H]1OC(=O)c2coc3c2[C@@]1(C)C1=C(C3=O)[C@@H]2CCC(=O)[C@@]2(C)CC1` [Ib, 11-deacetoxywortmannin], the IC50 ([1]; Osteoclast, hen osteoclasts, analogs, Example 2, read-out: IC50, resorption of hen osteoclasts) is reported as 500 nM, the “percent of control bone resorption” value [1, 7] is reported as 42 ± 3% and the “percent of control bone resorption” value [1, 8] is reported as 90 ± 15%. The “percent of control bone resorption” value [1, 9] was 97 ± 17% and the “percent of control bone resorption” value [1, 10] was 106 ± 10%.
Compound `COC[C@H]1OC(=O)c2coc3c2[C@@]1(C)C1=C(C3=O)[C@@H]2CCC(=O)[C@@]2(C)C[C@H]1OC(C)=O` [Wortmannin, wortmannin] has an activity at 0.01 µM [1, 12] of 90 ± 7%, an activity at 0.05 µM [1, 12] of 79 ± 2% and an activity at 0.1 µM [1, 12] of 58 ± 6%. For the same compound, the activity at 0.5 µM [1, 12] was 52 ± 3%, the activity at 1 µM [1, 12] was 54 ± 4% and the activity at 5 µM [1, 12] was 19 ± 1%. For the same compound, the activity at 10 µM [1, 12] was 23 ± 7%, the IC50 ([1]; Osteoclast, read-out: IC50, in vitro bone resorption activity) was 300 nM and the activity at 1 µM ([4]; 1 × 10^-6 M) was 3 ± 3%. For the same compound, the activity at 0.1 µM ([4]; 1 × 10^-7 M) was 30 ± 6%, the activity at 0.01 µM ([4]; 1 × 10^-8 M) was 32 ± 13% and the activity at 0.001 µM ([4]; 1 × 10^-9 M) was 79 ± 22%. For the same compound, the activity at 0.0001 µM ([4]; 1 × 10^-10 M) was 93 ± 11% and the “serum calcium after 6 hr of infusion” value [2, 11] was “approximately 9 mg/dl”.
In the case of “calcitonin: calcitonin has been used to treat osteoporotic patients (CGNLSTCMLGTYTQDFNKFHTFPQTAIGVGAP; ends and bridges not checked; cysteine pairing not given here; UniProt P01258 85-116, looked up)”, the “arrest of post-menopausal loss of bone” value [5] is given as “ineffective to arrest the post-menopausal loss of bone”.
In the case of salmon calcitonin [reference compound], the “serum calcium after 6 hr of infusion” value ([2]; positive control, 12 ug/kg/day) is listed as 9 mg/dL and the “inhibition of resorption activity of mammalian osteoclasts” value [6] is listed as “directly inhibit the resorption activity of mammalian osteoclasts”.
